# Like-named read-outs stand apart in the source and are kept apart here.
# Tests used:
# Format in all cases: cell-based, human
# HER2 = assay: Induction of HER2 degradation in MCF-7 cells (immunoblotting); settings: for IC50: MCF-7 cells, 24-hr treatment, amount of drug needed to degrade 50% of the protein, average of three experiments, read-out: IC50 (HER-2)
# Description: (§1) The human breast cancer cell lines MCF-7 and SKBR-3 were obtained from ATCC (Rockville, Md.), and maintained in DME/F12 (1:1) supplemented with 10% heat-inactivated fetal bovine serum (Gemini Bioproducts), 2 mM glutamine, and 50 units/ml each of penicillin and streptomycin, in a humidified 5% CO2/air atmosphere at 37° C.
# (§2) Polyclonal antibodies against HER2 (c-18), Raf-1 (c-12), and P13 kinase (p85) (Z-8) were purchased from Santa Cruz Biotechnology, Inc. A monoclonal antibody against estrogen receptor (clone H-151) was obtained from StressGen Biotechnology Corp. A polyclonal antibody against the β-subunit of IGF-I receptor was kindly provided by Dr. L-H, Wang (Mt. Sinai Medical Center, New York).
# (§3) After exposure, cells were washed twice with ice-cold phosphate-buffered saline (PBS), collected by scraping and transferred into microcentrifuge tubes. For immunoblotting (HER2, Raf-1, ER), cells were lysed with SDS lysis buffer (50 mM Tris-HCl, pH 7.5, 2% SDS, 10% glycerol, and 1 mM DTT), boiled for 10 min, and sonicated briefly; for immunoprecipitation (IGF-IR), cells were lysed with NP40 lysis buffer (50 mM Tris-HCl, pH 7.5, 1% Nonidet P-40, 150 mM NaCl, 1 mM Na3VO4, 40 mM NaF, 1 mM phenylmethylsulfonyl fluoride (PMSF) and 10 μg/ml each of aprotinin, leupeptin and soybean trypsin inhibitor) for 20 min at 4° C. Cell lysates were cleared by centrifuging at 14,000×g for 15 min at 4° C. in a microcentrifuge; the supernatants were collected as the experimental samples. Protein concentration in each sample was determined using the BCA kit (Pierce) according to the manufacture's instructions. For detecting IGF-IR, samples were immunoprecipitated with anti-IGF-IR antibody. Immunocomplexes were collected on protein A-Sepharose beads (Pharmacia), washed three times with the lysis buffer. Samples were subjected to SDS-PAGE, electrotransferred to nitrocellulose membranes, detected using the ECL kit (Amersham) according to the manufacturer's protocol, and quantitated using the Gel Doc 1000 (Bio-Rad).
# Raf-1 = assay: Induction of Raf-1 degradation in MCF-7 cells (immunoblotting); settings: for IC50: MCF-7 cells, 24-hr treatment, amount of drug needed to degrade 50% of the protein, average of three experiments
# Description: as §1, §2, §3
# MCF-7 cells = assay: MCF-7 cell growth inhibition (cell counting); settings: MCF-7 cells treated for four days, average of three experiments, read-out: IC50 (growth inh.)
# Description: as §1
# For cell growth experiments, cells were placed in 6-well tissue-culture plates (Corning) at 20,000 cells/well. Two days after plating, cells were treated with different concentrations of drugs or the vehicle DMSO (0.1%). MCF-7 cells were treated for four days; medium with the appropriate drug or vehicle was changed every 2 days; cells were trypsinized, collected and counted on a Coulter counter; IC50 for cell growth is designated as the amount of each drug needed to inhibit MCF-7 growth by 50% compared to the control vehicle.
SMILES,IC50 (HER2),Activity against HER2 (in words) (HER2; degradation in MCF-7 cells),"Selectivity / specificity for HER-2 over Raf-1 (HER2; degradation in MCF-7 cells, compared to GM)",IC50 (Raf-1),Activity against Raf-1 (in words) (Raf-1; degradation in MCF-7 cells),IC50 (MCF-7 cells),"IC50 (MCF-7 cells; Homo sapiens, MCF7, 96 h)"
COC1C=CC=C(C)C(=O)NC2=CC(=O)C(NCCCCN)=C(CC(C)CC(OC)C(O)C(C)C=C(C)C1OC(N)=O)C2=O (stereo not drawn) [ButylaminoGM],80 nM,modestly weaker than GM,not selective,350 nM,modestly weaker than GM,600 nM,–
COC1C=CC=C(C)C(=O)NC2=CC(=O)C(NCCCCCCCCCCCCNC3=C4CC(C)CC(OC)C(O)C(C)C=C(C)C(OC(N)=O)CC(OC)C=CC=C(C)C(=O)NC(=CC3=O)C4=O)=C(CC(C)CC(OC)C(O)C(C)C=C(C)C(OC(N)=O)C1)C2=O (stereo not drawn) [12 O———O],750 nM,–,–,3500 nM,–,–,700 nM
COC1C=CC=C(C)C(=O)NC2=CC(=O)C(NCCCCCCCCCNC3=C4CC(C)CC(OC)C(O)C(C)C=C(C)C(OC(N)=O)CC(OC)C=CC=C(C)C(=O)NC(=CC3=O)C4=O)=C(CC(C)CC(OC)C(O)C(C)C=C(C)C(OC(N)=O)C1)C2=O (stereo not drawn) [9 O———O],500 nM,–,–,3800 nM,–,–,700 nM
COC1C=CC=C(C)C(=O)NC2=CC(=O)C(NCCCCCCCNC3=C4CC(C)CC(OC)C(O)C(C)C=C(C)C(OC(N)=O)CC(OC)C=CC=C(C)C(=O)NC(=CC3=O)C4=O)=C(CC(C)CC(OC)C(O)C(C)C=C(C)C(OC(N)=O)C1)C2=O (stereo not drawn) [GMD-7c],70 nM,–,–,500 nM,–,–,600 nM
"COC1=C2C[C@@H](C)C[C@H](OC)[C@H](O)[C@@H](C)/C=C(\C)[C@H](OC(N)=O)[C@@H](OC)/C=C\C=C(/C)C(=O)NC(=CC1=O)C2=O [GM, Geldanamycin, reference compound]",45 nM,–,–,200 nM,–,–,25 nM

# Reference: patent publication US7238682B1, “Methods and compositions for degradation and/or inhibition of HER-family tyrosine kinases” (Sloan-Kettering Institute for Cancer Research, priority 1999, dated 2007)
